Patent US11739098B2 (BRISTOL-MYERS SQUIBB COMPANY, priority 2017, dated 2023)

Key:
Assay type in all cases: cell-based
[1] = biological target: T1, human TLR8 (Homo sapiens, UniProt Q9NR97); test: TLR8 inhibition reporter assay (HEK-Blue cells, SEAP reporter, R848 stimulation); conditions: HEK-Blue cells overexpressing human TLR8, SEAP reporter, R848 15.9 μM
T1 construct: host or cells: HEK-Blue cells (HEK293-derived reporter line)
T1 sequence (Q9NR97 27-1041): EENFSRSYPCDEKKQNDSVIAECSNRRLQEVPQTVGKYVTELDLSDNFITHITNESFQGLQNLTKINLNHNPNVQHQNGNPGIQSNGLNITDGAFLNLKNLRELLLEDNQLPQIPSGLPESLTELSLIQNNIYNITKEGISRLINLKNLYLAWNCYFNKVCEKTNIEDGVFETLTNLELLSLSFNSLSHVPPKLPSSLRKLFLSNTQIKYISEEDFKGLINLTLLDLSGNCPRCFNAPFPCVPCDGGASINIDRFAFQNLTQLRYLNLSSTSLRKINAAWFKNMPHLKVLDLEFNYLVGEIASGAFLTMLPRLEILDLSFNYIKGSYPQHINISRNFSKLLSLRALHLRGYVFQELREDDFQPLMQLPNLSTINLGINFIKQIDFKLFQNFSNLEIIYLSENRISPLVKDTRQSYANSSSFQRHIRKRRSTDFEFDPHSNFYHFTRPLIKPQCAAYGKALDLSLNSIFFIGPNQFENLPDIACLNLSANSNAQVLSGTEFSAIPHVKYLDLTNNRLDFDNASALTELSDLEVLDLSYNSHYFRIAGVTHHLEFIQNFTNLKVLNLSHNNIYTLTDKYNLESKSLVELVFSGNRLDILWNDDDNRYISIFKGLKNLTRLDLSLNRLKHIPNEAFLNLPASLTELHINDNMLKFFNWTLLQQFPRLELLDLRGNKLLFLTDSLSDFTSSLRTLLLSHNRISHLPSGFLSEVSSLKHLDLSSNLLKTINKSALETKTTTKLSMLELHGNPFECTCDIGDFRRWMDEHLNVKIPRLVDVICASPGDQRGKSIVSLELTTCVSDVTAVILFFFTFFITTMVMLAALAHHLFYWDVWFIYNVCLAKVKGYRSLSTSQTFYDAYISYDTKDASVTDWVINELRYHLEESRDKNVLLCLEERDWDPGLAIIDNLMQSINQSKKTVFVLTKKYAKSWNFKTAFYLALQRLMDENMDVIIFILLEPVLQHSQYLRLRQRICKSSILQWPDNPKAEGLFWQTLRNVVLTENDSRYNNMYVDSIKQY
Procedure, shortened: (§1)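 After 22 h at 37 °C, SEAP secretion was measured from human TLR7-, TLR8- or TLR9-expressing HEK-Blue reporter cells given compound (0.05 nM–50 μM) 30 min before agonist: 7.5 μM gardiquimod, 15.9 μM R848 or 5 nM ODN2006 respectively. Percent inhibition referenced to agonist-plus-DMSO and known-inhibitor wells.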

[2] = biological target: T2, human TLR9 (Homo sapiens, UniProt Q9NR96); test: TLR9 inhibition reporter assay (HEK-Blue cells, SEAP reporter, ODN2006 stimulation); conditions: HEK-Blue cells overexpressing human TLR9, SEAP reporter, ODN2006 5 nM
T2 construct: host or cells: HEK-Blue cells (HEK293-derived reporter line)
T2 sequence (Q9NR96 26-1032): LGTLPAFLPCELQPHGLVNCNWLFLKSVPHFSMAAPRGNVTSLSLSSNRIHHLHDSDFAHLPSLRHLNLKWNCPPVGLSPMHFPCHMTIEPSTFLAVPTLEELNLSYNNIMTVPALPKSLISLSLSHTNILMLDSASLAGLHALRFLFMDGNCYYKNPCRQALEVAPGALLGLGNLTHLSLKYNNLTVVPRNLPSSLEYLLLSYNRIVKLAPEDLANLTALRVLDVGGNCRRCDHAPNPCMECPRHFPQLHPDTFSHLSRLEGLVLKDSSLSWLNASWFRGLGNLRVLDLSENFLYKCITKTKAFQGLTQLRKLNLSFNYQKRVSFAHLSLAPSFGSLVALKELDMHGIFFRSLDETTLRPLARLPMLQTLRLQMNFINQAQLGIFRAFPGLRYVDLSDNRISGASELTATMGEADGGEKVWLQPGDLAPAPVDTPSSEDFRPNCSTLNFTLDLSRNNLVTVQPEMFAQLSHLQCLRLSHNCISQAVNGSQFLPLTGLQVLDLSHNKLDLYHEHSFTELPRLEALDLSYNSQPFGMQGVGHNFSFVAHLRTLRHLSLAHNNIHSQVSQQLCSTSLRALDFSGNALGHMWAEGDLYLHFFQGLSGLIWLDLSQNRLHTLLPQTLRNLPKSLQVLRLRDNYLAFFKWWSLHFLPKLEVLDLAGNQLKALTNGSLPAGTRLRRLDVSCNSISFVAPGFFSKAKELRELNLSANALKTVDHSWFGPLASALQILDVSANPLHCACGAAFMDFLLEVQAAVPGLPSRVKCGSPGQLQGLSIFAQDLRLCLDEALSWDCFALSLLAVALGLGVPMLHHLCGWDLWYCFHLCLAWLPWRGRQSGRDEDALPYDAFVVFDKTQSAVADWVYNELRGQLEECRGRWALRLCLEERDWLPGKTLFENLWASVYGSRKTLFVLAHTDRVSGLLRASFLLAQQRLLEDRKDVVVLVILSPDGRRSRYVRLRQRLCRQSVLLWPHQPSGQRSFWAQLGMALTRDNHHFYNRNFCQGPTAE
Procedure, shortened: as §1

[3] = biological target: T3, human TLR7 (Homo sapiens, UniProt Q9NYK1); test: TLR7 inhibition reporter assay (HEK-Blue cells, SEAP reporter, gardiquimod stimulation); conditions: HEK-Blue cells overexpressing human TLR7, SEAP reporter, gardiquimod 7.5 μM
T3 construct: host or cells: HEK-Blue cells (HEK293-derived reporter line)
T3 sequence (Q9NYK1 27-1049): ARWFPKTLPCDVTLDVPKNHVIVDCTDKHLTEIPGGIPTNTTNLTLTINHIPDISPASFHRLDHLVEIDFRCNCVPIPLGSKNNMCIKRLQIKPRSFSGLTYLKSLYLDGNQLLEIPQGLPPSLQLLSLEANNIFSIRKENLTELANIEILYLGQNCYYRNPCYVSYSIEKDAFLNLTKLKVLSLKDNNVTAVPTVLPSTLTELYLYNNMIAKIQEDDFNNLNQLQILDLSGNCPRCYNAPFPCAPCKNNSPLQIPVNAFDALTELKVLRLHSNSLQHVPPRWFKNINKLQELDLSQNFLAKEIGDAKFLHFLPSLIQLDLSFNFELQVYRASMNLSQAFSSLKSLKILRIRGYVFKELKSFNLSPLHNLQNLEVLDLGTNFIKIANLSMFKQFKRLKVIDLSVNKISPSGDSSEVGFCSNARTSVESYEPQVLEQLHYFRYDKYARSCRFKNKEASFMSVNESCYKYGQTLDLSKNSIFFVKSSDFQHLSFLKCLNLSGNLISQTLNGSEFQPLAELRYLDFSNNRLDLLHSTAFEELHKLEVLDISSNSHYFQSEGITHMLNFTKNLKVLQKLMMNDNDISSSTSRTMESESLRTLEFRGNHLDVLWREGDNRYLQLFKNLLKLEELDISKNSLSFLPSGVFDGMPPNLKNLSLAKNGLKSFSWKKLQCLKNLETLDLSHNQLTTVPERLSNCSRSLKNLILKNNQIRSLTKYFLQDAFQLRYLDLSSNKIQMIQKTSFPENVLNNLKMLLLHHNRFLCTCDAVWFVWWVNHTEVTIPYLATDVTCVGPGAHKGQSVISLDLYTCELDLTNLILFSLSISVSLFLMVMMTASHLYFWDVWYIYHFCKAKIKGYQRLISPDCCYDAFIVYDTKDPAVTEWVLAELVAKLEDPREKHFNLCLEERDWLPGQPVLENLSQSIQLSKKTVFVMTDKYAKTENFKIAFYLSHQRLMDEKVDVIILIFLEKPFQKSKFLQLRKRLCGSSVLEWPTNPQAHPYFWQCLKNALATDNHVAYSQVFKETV
Procedure, shortened: as §1

IC50 [1] [µM]	IC50 [2] [µM]	IC50 [3] [µM]	SMILES
0.1 to 1	0.1 to 1	< 0.1	CC(C)c1c(-c2ccnc3[nH]ncc23)[nH]c2cc(C(F)(F)F)c(C3CCN(CC4CCNC4)CC3)cc12 (stereo not drawn) [Example 851, 4-(3-isopropyl-5-(1-(pyrrolidin-3-ylmethyl)piperidin-4-yl)-6-(trifluoromethyl)-1H-indol-2-yl)-1H-pyrazolo[3,4-b]pyridine]
< 0.1	0.1 to 1	1 to 50	CC(C)c1c(-c2ccnc3[nH]ncc23)[nH]c2ccc(C3CCN(C4CCCNCC4)CC3)cc12 (stereo not drawn) [Example 828, 4-(5-(1-(azepan-4-yl)piperidin-4-yl)-3-isopropyl-1H-indol-2-yl)-1H-pyrazolo[3,4-b]pyridine]
< 0.1	0.1 to 1	< 0.1	Cc1cc(-c2[nH]c3ccc(C4CCNCC4)cc3c2C(C)C)cn2ccnc12 [Example 112, 6-(3-isopropyl-5-(piperidin-4-yl)-1H-indol-2-yl)-8-methylimidazo[1,2-a]pyridine]
0.1 to 1	1 to 50	0.1 to 1	CC(C)c1c(-c2ccnc3[nH]ncc23)[nH]c2ccc(C3CCN(C(=O)C4CCNCC4)CC3)cc12 [Example 649, (4-(3-isopropyl-2-(1H-pyrazolo[3,4-b]pyridin-4-yl)-1H-indol-5-yl)piperidin-1-yl)(piperidin-4-yl)methanone]
0.1 to 1	0.1 to 1	< 0.1	CNCC(=O)N1CCC(c2ccc3[nH]c(-c4cc(F)c5nccn5c4)c(C(C)C)c3c2)CC1 [Example 547, 1-(4-(2-(8-fluoroimidazo[1,2-a]pyridin-6-yl)-3-isopropyl-1H-indol-5-yl)piperidin-1-yl)-2-(methylamino)ethan-1-one]
< 0.1	1 to 50	< 0.1	CC(C)c1c(-c2cn(C)c3ncccc23)[nH]c2ccc(C3CCN(CC(N)=O)CC3)cc12 [Example 296, 2-(4-(3-isopropyl-2-(1-methyl-1H-pyrrolo [2,3-b]pyridin-3-yl)-1H-indol-5-yl)piperidin-1-yl)acetamide]
< 0.1	1 to 50	< 0.1	CC(C)c1c(-c2cnc3ncnn3c2)[nH]c2ccc(C3CCN(C4CCS(=O)(=O)CC4)CC3)cc12 [Example 798, 4-(4-(2-([1,2,4]triazolo[1,5-a]pyrimidin-6-yl)-3-isopropyl-1H-indol-5-yl)piperidin-1-yl)tetrahydro-2H-thiopyran 1,1-dioxide]
0.1 to 1	> 50	< 0.1	Cc1cc(-c2[nH]c3ccc(C4CCN(C(=O)CN5CCC(F)(F)C5)CC4)cc3c2C(C)C)cn2nnnc12 [Example 478, 2-(3,3-difluoropyrrolidin-1-yl)-1-(4-(3-isopropyl-2-(8-methyltetrazolo[1,5-a]pyridin-6-yl)-1H-indol-5-yl)piperidin-1-yl)ethan-1-one]
0.1 to 1	0.1 to 1	< 0.1	Cc1cn2cc(-c3[nH]c4ccc(C5CCN(C(C)C)CC5)cc4c3C(C)C)cc(C(F)(F)F)c2n1 [Example 943, 6-(3-isopropyl-5-(1-isopropylpiperidin-4-yl)-1H-indol-2-yl)-2-methyl-8-(trifluoromethyl)imidazo[1,2-a]pyridine]
< 0.1	1 to 50	< 0.1	CC(C)c1c(-c2ccnc3[nH]ncc23)[nH]c2ccc(C3CCN(Cc4ccccn4)CC3)cc12 [Example 866, 4-(3-isopropyl-5-(1-(pyridin-2-ylmethyl)piperidin-4-yl)-1H-indol-2-yl)-1H-pyrazolo[3,4-b]pyridine]
1 to 50	1 to 50	< 0.1	Cc1cc(-c2[nH]c3ccc(C4CCNCC4)cc3c2C(C)C)cn2c(C)cnc12 [Example 121, 6-(3-isopropyl-5-(piperidin-4-yl)-1H-indol-2-yl)-3,8-dimethylimidazo[1,2-a]pyridine]
0.1 to 1	0.1 to 1	0.1 to 1	CC(C)c1c(-c2ccc3c(N)noc3c2)[nH]c2ccc(C3CCNCC3)cc12 [Example 86, 6-(3-isopropyl-5-(piperidin-4-yl)-1H-indol-2-yl)benzo[d]isoxazol-3-amine]
0.1 to 1	0.1 to 1	0.1 to 1	CCc1c[nH]c2nccc(-c3[nH]c4ccc(C5CCNCC5)cc4c3C)c12 [Example 219, 4-(3-methyl-5-(piperidin-4-yl)-1H-indol-2-yl)-3-ethyl-1H-pyrrolo[2,3-b]pyridine]
< 0.1	1 to 50	< 0.1	CNC(=O)c1cn2cc(-c3[nH]c4ccc(C5CCN(CC(=O)N(C)C)CC5)cc4c3C(C)C)cc(C)c2n1 [Example 346, 6-(5-(1-(2-(dimethylamino)-2-oxoethyl)piperidin-4-yl)-3-isopropyl-1H-indol-2-yl)-N,8-dimethylimidazo[1,2-a]pyridine-2-carboxamide]
